Experiment: gradient 5% acetonitrile 3 min, to 50% in 2 min, to 85% in 15 min, held 3 min, 100 µL/min
Settings: column: Zorbax Extend-C18 2.1 x 50 mm; eluents: water / acetonitrile, 0.1% formic acid
Outline: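 Retention times come from adduct peaks that were picked computationally and then checked by hand. The standards, pure and pooled in mixtures of ~100 molecules, were run on a Zorbax Extend-C18 column (2.1 × 50 mm, 1.8 μm) at 100 μL/min with water and acetonitrile, each with 0.1% formic acid. Detection was by quadrupole time-of-flight mass spectrometry in positive and negative ionization mode, with a dead volume of 40 μL and a dwell volume of 900 μL.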

Row | SMILES | RP-LC retention time [s]
1 | O=C(Cn1nc2c3sc(N4CCCCC4)nc3ncn2c1=O)Nc1ccc(F)cc1Cl | 844
2 | O=c1ccc(-c2ccccc2)nn1Cc1nc(-c2ccccc2Cl)no1 | 976
3 | COCc1c(C(=O)O)nnn1-c1ccc2c(c1)CCC2 | 777
4 | Nc1c(C(=O)NCc2ccc3c(c2)OCO3)nsc1C(=O)N1CCN(c2ccccn2)CC1 | 663
5 | COc1ccc2c(c1)C1(CCN(C(=O)Nc3ccccc3C)C1)C(=O)N2C (stereo not given) | 750
6 | O=C(CCNc1c(-c2cccc(F)c2)nc2cnccn12)N1CCCC1 | 670
7 | CC(C)CCNC(=O)N1CCN(Cc2nc3cc(C(=O)N(C)C)ccc3o2)CC1 | 614
8 | Cc1ccc(-c2nc(N3CC(C)OC(C)C3)c3ccccc3n2)cc1 (stereo not given) | 763
9 | COC(=O)c1cn(CC(=O)N2CCc3ccccc32)c2ccccc12 | 974
10 | Cc1ccc(-c2ccc(N3CCCC(C(=O)NCc4ccc5c(c4)OCO5)C3)nn2)cc1C (stereo not given) | 763
11 | Cc1cc(NC(=O)c2c(O)c3cccnc3n(-c3cccc(F)c3)c2=O)ccc1F | 1310
12 | COc1ccc(CNC(=O)c2cc3c(=O)n(C)c4ccccc4n3n2)c(OC)c1 | 784
13 | Cc1ccc2oc(-c3nnc(C(=O)NCCCN4CCOCC4)o3)c(C)c2c1 | 668
14 | O=C(C1CCCCC1)N1CCCN(c2ncccc2-c2nc(C3CC3)no2)CC1 | 1010
15 | Cc1cc(C)cc(-c2nnc(Cc3nc(-c4ccc(F)cc4)no3)o2)c1 | 1120
16 | Cc1ccc(NC(=O)N2CCN(c3ccc(=O)n(-c4ccccc4)n3)CC2)cc1Cl | 708
17 | O=C1COc2cc(S(=O)(=O)N3CCCC3C(=O)NCc3ccccc3)c(Cl)cc2N1 (stereo not given) | 718
18 | COc1cccc(C2CC(c3ccc(F)cc3)=NC3(CCN(C(C)C)CC3)N2)c1O (stereo not given) | 608
19 | CN1C(=O)Cc2cc(C(=O)NCc3ccccc3Cl)ccc21 | 738
20 | Cc1cccc2c(=O)n(C3CCN(S(=O)(=O)c4ccc(CC(C)C)cc4)CC3)cnc12 | 1230
21 | CCOC(=O)c1cn(Cc2ccccc2)c2ccccc2c1=O | 769
22 | Cc1cccc(Cn2c(=O)n(C)c(=O)c3snc(-c4ccccn4)c32)c1 | 925
23 | Cc1nnc2c(NC(=O)c3ccsc3)cccn12 | 606

Row | SMILES | RP-LC retention time [s]
24 | CNC(=O)Oc1ccc(N(C)C)cc1C(C)C | 642
25 | CCc1ccc2nc(C)cc(C(N)=O)c2c1 | 561
26 | COC(=O)C1=CN(C2CC2)c2cc(N3CCCCC3)c(F)cc2S1(=O)=O | 932
27 | CS(=O)(=O)Nc1ccc(C2(C(=O)NCc3ccc(F)cc3Cl)CCCCC2)cc1 | 979
28 | COc1ccc(CNC(=O)c2sc(-c3cn(C)c4ncccc34)nc2C)cc1 | 958
29 | O=C(NCCC1CCN(S(=O)(=O)c2ccccc2)CC1)Nc1ccc(F)cc1 | 883
30 | COCCN1C(=O)c2ccccc2C(C(=O)NCCCN2CCCCC2C)C1c1cccs1 (stereo not given) | 624
31 | CC1CCN(S(=O)(=O)c2ccc3c(c2)CCCC(=O)N3CC(=O)Nc2ccc(F)cc2)CC1 | 959
32 | O=C(Nc1nc2c(s1)CN(C(=O)c1cc(C3CC3)on1)CC2)c1ccco1 | 710
33 | COc1ccccc1-c1noc(C2CCCN2C(=O)c2ccc(C)s2)n1 (stereo not given) | 996
34 | Cc1cccc(N2CCN(C(=O)Cn3nc(C(=O)N4CCCC4)c4ccccc43)CC2)c1C | 1020
35 | O=C(NCC(F)(F)F)c1cnccn1 | 597
36 | CCOC(=O)C1CCN(C(=O)C2CCCN(c3ccc(-c4ccc(C)c(C)c4)nn3)C2)CC1 (stereo not given) | 761
37 | O=C(NC1CCCCCC1)C1CCCN(c2ncc(-c3ccc(F)cc3)cn2)C1 (stereo not given) | 1150
38 | CCCN1C(=O)c2c(C(=O)NCCc3cccc(C)c3)ncn2CC1(C)C(=O)NC1CCCC1 (stereo not given) | 918
39 | Cc1nc(-c2csc(S(=O)(=O)N3CCCC(C(=O)Nc4ccc(C(C)C)cc4)C3)c2)no1 (stereo not given) | 1090
40 | O=C(c1cc(-c2cccnc2)n[nH]1)N1CCN(C(=O)C2CCC2)CC1 | 581
41 | Cc1cccc(CNS(=O)(=O)c2cc3n(c2)CCCNC3=O)c1 | 677
42 | Cc1ccc(NC(=O)NCC2CCOCC2)cc1C | 726
43 | Cc1nnc2cc(N3CCN(S(=O)(=O)c4ccc(C#N)cc4)CC3)cnn12 | 642
44 | CCCn1cc(C(=O)Nc2ccc3c(c2)OCCO3)c(=O)c2ccc(C)nc21 | 1070
45 | O=C(Cn1c(=O)c2cccn2c2ccc(F)cc21)NCc1ccco1 | 767
46 | COC(=O)c1nnn(-c2ccccc2C(F)(F)F)c1N | 936

Row | SMILES | RP-LC retention time [s]
47 | CCc1nnc(-c2cn(CC(=O)Nc3ccc(F)c(F)c3)c3ccccc23)o1 | 888
48 | O=C(Cc1ccsc1)N1CCc2cc(-c3csc(C4CC4)n3)ccc21 | 1120
49 | Nc1ccc(NC(=O)c2ccc(C(F)(F)F)cc2)nc1 | 693
50 | CCCCn1c(SCc2nc(-c3ccc(OCC)cc3)no2)nc2cc3c(cc2c1=O)OCO3 | 1390
51 | O=C(Nc1ccc(F)cc1F)N1CCC(OC2CCN(Cc3ccccc3)CC2)CC1 | 656
52 | CCc1nc(OCC(=O)Nc2ccccc2CC)c2ccccc2n1 | 830
53 | N#Cc1cccc(C(=O)NC2CCN(c3cc(-c4ccc(F)cc4)[nH]n3)C2)c1 (stereo not given) | 712
54 | COC(=O)c1cnc2nc(C)ccc2c1Nc1ccc2c(c1)OCCO2 | 652
55 | O=C(Cn1cc(S(=O)(=O)Cc2cccc(Cl)c2)c2ccccc21)N1CCOCC1 | 774
56 | Cc1nn2c(CNS(=O)(=O)Cc3cccc(F)c3)c(-c3ccccc3)nc2s1 | 935
57 | Cc1ccc(-n2c(=O)c3sccc3n(Cc3nc(-c4cccc(C)c4)no3)c2=O)cc1 | 1060
58 | CCCS(=O)(=O)N1CCOc2ccc(CN3CCc4ccccc4C3)cc2C1 | 596
59 | Cc1cc(C)c(S(=O)(=O)N2CC(c3nc(Cc4ccccc4)no3)C2)cc1C | 1190
60 | O=C(c1cc(-c2ccncc2)n[nH]1)N1CCN(C(=O)c2ccc(Br)o2)CC1 | 590
61 | COCCn1c(C2CCN(C(=O)Cc3ccc(Cl)cc3)C2)nc2ccncc21 (stereo not given) | 570
62 | COc1ccc(Cc2nc3ccccc3n2CC(=O)N2CCCCCC2)cc1OC | 653
63 | Cc1nc(-c2cn(C(C)C)c3ncccc23)sc1C(=O)NCC(C)C | 975
64 | O=C(CN(C(=O)c1ccc(F)c(F)c1)C1CCCCC1)N1CCNCC1 | 635
65 | CN1CCCc2cc(C(=O)NC3CCCCCC3)sc21 | 755
66 | CCNc1nc(-c2ccc(C3CCCCC3)cc2)cs1 | 1060
67 | COc1ccc(NC(=O)Cn2cnc3c(sc4nc(-c5ccccc5)ccc43)c2=O)c(OC)c1 | 991
68 | Cc1ccc(NC(=O)Cn2c(=O)n(-c3ccc(F)cc3)c(=O)c3c2cc(C)n3C)c(Cl)c1 | 946
69 | CC(C)NC(=O)N(C1CC1)C1CCOC2(CCN(C(=O)C3(c4ccccc4)CC3)CC2)C1 (stereo not given) | 865

Row | SMILES | RP-LC retention time [s]
70 | Cn1c(=O)c2cc(C(=O)Nc3ccccc3)cnc2n(-c2ccc(F)cc2)c1=O | 885
71 | CCCCNC(=O)CN1C(=O)C2CCCCN2c2ccc(S(=O)(=O)N3CCCC3)cc21 (stereo not given) | 873
72 | Cc1ccc2ncn(C3CCN(S(=O)(=O)c4cc(C)c(C)cc4C)CC3)c(=O)c2c1 | 1050
73 | Cc1cc(C(=O)Nc2ccc(-c3nc(Cn4cccn4)c(C)o3)cc2)no1 | 823
74 | CCOc1ccc2nc(NCc3ccco3)sc2c1 | 728
75 | CCCNC(=O)C1CCN(c2cnc(N3CCCCCC3)nc2)CC1 | 666
76 | CCC(C)C(NC(=O)c1ccc(F)c(F)c1)C(=O)Nc1nc2ccccc2[nH]1 (stereo not given) | 774
77 | CN(CCc1noc(-c2ccc(C(=O)N3CCCCC3)cc2)n1)C(=O)c1ccc(Br)o1 | 782
78 | Cn1nc2ccc(S(=O)(=O)N3CCSCC3)cn2c1=O | 687
79 | COc1ccc(F)cc1S(=O)(=O)N1CC(F)(F)C[C@H]1CN1CCc2ccccc2C1 | 739
80 | CCc1ccc(-c2nc(NC(=O)c3cc(C)on3)sc2C)cc1 | 1160
81 | COc1ccccc1N1CCN(c2nc3ccccc3cc2-c2noc(C)n2)CC1 | 671
82 | CCCN1C(=O)c2cccnc2Sc2cc(C(=O)N3CCC(C)CC3)ccc21 | 856
83 | CC(C)NC(=O)c1cn(-c2ccc(-c3nc(C(C)(C)C)no3)cn2)cn1 | 970
84 | Cn1cccc1CN(C(=O)CC(c1ccccc1)c1ccccc1)C1CC1 | 1080
85 | O=C(c1ccc(-c2cncnc2)nc1)N1CCN(c2ccccc2F)CC1 | 760
86 | O=C(Cn1ccc2ccn(Cc3cccnc3)c2c1=O)NC1CCCC1 | 605
87 | CN(C)[C@@H]1CN(C(=O)c2cccc(Br)c2)C[C@H]1CO | 573
88 | Cc1cc(C(=O)NCC2Cn3cccc3C(=O)N2C)nn1C (stereo not given) | 599
89 | C=CCn1nc2ccc(S(=O)(=O)N3CCC(C)CC3)cn2c1=O | 843
90 | CCc1onc(C)c1C1CCCN1C(=O)c1cc(-c2ccc3c(c2)OCO3)on1 (stereo not given) | 928

Reference: the METLIN SMRT retention time set (Domingo-Almenara et al. 2019)
